Laboratory results published in ChEMBL document CHEMBL1122660 (J Med Chem, 1984).

Tests used:
P388 [1] = test: Optimum dose (mg/kg) against P388 leukemic cells; format: functional, Mus musculus
P388 [2] = test: Ratio of optimal dose (OD) and minimum effective dose (MED) required for antitumor activity in mice bearing P-388 lymphocytic leukemia; format: functional, Mus musculus
P388 [3] = test: Maximum percent T/C (antitumor activity) against P388 leukemia cells for Mitomycin C; format: functional, Mus musculus
P388 [4] = test: Maximum percent T/C (antitumor activity) against P388 leukemia cells; format: functional, Mus musculus
P388 [5] = test: Minimum effective dose against P388 leukemic cells; format: functional; settings: Mus musculus, read-out: MED
[6] = Partition coefficient between 1-octanol and water containing phosphate buffer at pH 7.4; format: physicochemical; settings: 1-octanol/water containing phosphate buffer
Mus musculus = species: Mus musculus; test: Percentage change in WBC at optimum dose on day 3; format: functional
[7] = Distribution between 1-octanol and water containing phosphate buffer at pH 7.4; format: physicochemical; settings: 1-octanol/water containing phosphate buffer

| SMILES | OD (P388 [1]) [mg/kg] | Therapeutic ratio (P388 [2]) | T/C (P388 [3]) [%] | T/C (P388 [4]) [%] | minimal effective dose (P388 [5]) [mg/kg] | logD [6] | Change (Mus musculus) [%] | logD [7] |
| --- | --- | --- | --- | --- | --- | --- | --- | --- |
| COC12[C@@H]3N[C@@H]3CN1C1=C(C(=O)C(Nc3ccc(S(N)(=O)=O)cc3)=C(C)C1=O)[C@@H]2COC(N)=O (stereo partly specified) | 25.6 | 128 | 213 | 225 | 0.2 | -0.52 | – | – |
| COc1ccc(NC2=C(C)C(=O)C3=C(C2=O)[C@H](COC(N)=O)C2(OC)[C@@H]4N[C@@H]4CN32)cc1N (stereo partly specified) | 6.4 | 32 | 311 | 228 | 0.2 | – | – | – |
| COC12[C@@H]3N[C@@H]3CN1C1=C(C(=O)C(Nc3nc4cc(Cl)ccc4o3)=C(C)C1=O)[C@@H]2COC(N)=O (stereo partly specified) | 25.6 | 16 | 267 | 178 | 1.6 | – | -33 | – |
| COC12[C@@H]3N[C@@H]3CN1C1=C(C(=O)C(Nc3ccccc3)=C(C)C1=O)[C@@H]2COC(N)=O (stereo partly specified) | 12.8 | 8 | 200 | 161 | 1.6 | 1.3 | – | – |
| COC12[C@@H]3N[C@@H]3CN1C1=C(C(=O)C(Nc3ccc(C#N)cc3)=C(C)C1=O)[C@@H]2COC(N)=O (stereo partly specified) | 3.2 | 4 | 233 | 150 | 0.8 | 0.72 | – | – |
| COC12[C@@H]3N[C@@H]3CN1c1c(O)c(C)c(N=C3C=CC(=O)C=C3)c(O)c1[C@@H]2COC(N)=O (stereo partly specified) | 25.6 | 128 | 144 | >300 | 0.2 | 0.63 | -27 | – |
| COC12[C@@H]3N[C@@H]3CN1c1c(O)c(C)c(N=C3C=CC(=S)C=C3)c(O)c1[C@@H]2COC(N)=O (stereo partly specified) | 25.6 | 16 | 250 | 131 | 1.6 | 1.69 | – | – |
| COc1ccccc1/N=C1/C(=O)C2=C(C(O)=C1C)N1C[C@H]3N[C@H]3C1(OC)[C@H]2COC(N)=O (stereo partly specified) | 25.6 | 128 | 206 | 200 | 0.4 | – | – | – |
| COC12[C@@H]3N[C@@H]3CN1C1=C(C(=O)C(Nc3ccc(I)cc3)=C(C)C1=O)[C@@H]2COC(N)=O (stereo partly specified) | 25.6 | 1 | 200 | 128 | 25.6 | 2.42 | – | – |
| COc1cc(/N=C2/C(=O)C3=C(C(O)=C2C)N2C[C@H]4N[C@H]4C2(OC)[C@H]3COC(N)=O)c2ncccc2c1 (stereo partly specified) | 6.4 | 16 | 178 | 178 | 0.4 | – | – | – |
| [H][C@@]12CN3c4c(O)c(C)c(/N=C5C=C/C(=N/C(N)=O)C=C\5)c(O)c4[C@H](COC(N)=O)C3(OC)[C@]1([H])N2 (stereo partly specified) | 25.6 | 16 | 278 | 194 | 1.6 | 0 | – | – |
| COC12[C@@H]3N[C@@H]3CN1C1=C(C(=O)C(Nc3cccc(N)c3)=C(C)C1=O)[C@@H]2COC(N)=O (stereo partly specified) | 1.6 | >8 | 200 | 222 | < 0.2 | 0.07 | -17 | – |
| COC12[C@@H]3N[C@@H]3CN1C1=C(C(=O)C(Nc3cccc(C)c3)=C(C)C1=O)[C@@H]2COC(N)=O (stereo partly specified) | 12.8 | 32 | 319 | 181 | 0.4 | 1.83 | – | – |
| COC12[C@@H]3N[C@@H]3CN1C1=C(C(=O)C(Nc3cc(C)ns3)=C(C)C1=O)[C@@H]2COC(N)=O (stereo partly specified) | 25.6 | 32 | 325 | 169 | – | – | – | -0.3 |
| COC12[C@@H]3N[C@@H]3CN1C1=C(C(=O)C(Nc3nc(C)cs3)=C(C)C1=O)[C@@H]2COC(N)=O (stereo partly specified) | 6.4 | 16 | 224 | 172 | 0.4 | – | – | 1.16 |
| COC12[C@@H]3N[C@@H]3CN1C1=C(C(=O)C(Nc3ccc([N+](=O)[O-])cc3)=C(C)C1=O)[C@@H]2COC(N)=O (stereo partly specified) | 3.2 | >16 | 233 | 172 | < 0.2 | 1.02 | – | – |
| COC1=C/C(=N/c2c(C)c(O)c3c(c2O)[C@H](COC(N)=O)C2(OC)[C@@H]4N[C@@H]4CN32)C=CC1=N (stereo partly specified) | 25.6 | 16 | 311 | 239 | 1.6 | – | – | – |

| SMILES | OD (P388 [1]) [mg/kg] | Therapeutic ratio (P388 [2]) | T/C (P388 [3]) [%] | T/C (P388 [4]) [%] | minimal effective dose (P388 [5]) [mg/kg] | logD [6] | Change (Mus musculus) [%] | logD [7] |
| --- | --- | --- | --- | --- | --- | --- | --- | --- |
| COC12[C@@H]3N[C@@H]3CN1C1=C(C(=O)C(Nc3ccc4c(c3)OCO4)=C(C)C1=O)[C@@H]2COC(N)=O (stereo partly specified) | 3.2 | >16 | 211 | 167 | < 0.2 | – | – | – |
| COC12[C@@H]3N[C@@H]3CN1c1c(O)c(C)c(/N=C3\C=CC(=O)C=C3C)c(O)c1[C@@H]2COC(N)=O (stereo partly specified) | 25.6 | 64 | 200 | 244 | 0.4 | – | -34 | – |
| COC12[C@@H]3N[C@@H]3CN1C1=C(C(=O)C(Nc3cccc(O)c3)=C(C)C1=O)[C@@H]2COC(N)=O (stereo partly specified) | 12.8 | >64 | 211 | 356 | < 0.2 | 0.63 | – | – |
| COc1cccc(NC2=C(C)C(=O)C3=C(C2=O)[C@H](COC(N)=O)C2(OC)[C@@H]4N[C@@H]4CN32)c1 (stereo partly specified) | 12.8 | 64 | 319 | 181 | 0.2 | 1.28 | – | – |
| COC12[C@@H]3N[C@@H]3CN1C1=C(C(=O)C(Nc3nnc(C)s3)=C(C)C1=O)[C@@H]2COC(N)=O (stereo partly specified) | 25.6 | 32 | 267 | 222 | 0.8 | – | -32 | – |
| COc1cc(NC2=C(C)C(=O)C3=C(C2=O)[C@H](COC(N)=O)C2(OC)[C@@H]4N[C@@H]4CN32)cc(OC)c1 (stereo partly specified) | 6.4 | 16 | 278 | 161 | 0.4 | – | – | – |
| COC12[C@@H]3N[C@@H]3CN1C1=C(C(=O)C(Nc3cccc(NC(C)=O)c3)=C(C)C1=O)[C@@H]2COC(N)=O (stereo partly specified) | 25.6 | 128 | 211 | 231 | 0.2 | 0.33 | – | – |
| COC12[C@@H]3N[C@@H]3CN1C1=C(C(=O)C(Nc3ccc(C)cc3)=C(C)C1=O)[C@@H]2COC(N)=O (stereo partly specified) | – | 32 | 200 | 206 | – | 1.86 | -37 | – |
| COC12[C@@H]3N[C@@H]3CN1C1=C(C(=O)C(Nc3ccc4[nH]ncc4c3)=C(C)C1=O)[C@@H]2COC(N)=O (stereo partly specified) | 25.6 | 128 | 250 | 206 | 0.2 | – | – | – |
| COC12[C@@H]3N[C@@H]3CN1C1=C(C(=O)C(Nc3cccc(Cl)c3)=C(C)C1=O)[C@@H]2COC(N)=O (stereo partly specified) | 12.8 | 2 | 156 | 139 | 6.4 | 2.01 | – | – |
| COC12[C@@H]3N[C@@H]3CN1C1=C(C(=O)C(Nc3nc4ccc([N+](=O)[O-])cc4s3)=C(C)C1=O)[C@@H]2COC(N)=O (stereo partly specified) | 25.6 | 1 | 156 | 128 | 25.6 | – | – | – |
| COC12[C@@H]3N[C@@H]3CN1C1=C(C(=O)C(Nc3ccc(F)cc3)=C(C)C1=O)[C@@H]2COC(N)=O (stereo partly specified) | 12.8 | 32 | 278 | 167 | – | 1.44 | – | – |
| COC12[C@@H]3N[C@@H]3CN1C1=C(C(=O)C(Nc3cccc(C#N)c3)=C(C)C1=O)[C@@H]2COC(N)=O (stereo partly specified) | 12.8 | 64 | 156 | 172 | 0.2 | 0.73 | – | – |
| COC12[C@@H]3N[C@@H]3CN1C1=C(C(=O)C(Nc3nc4c(Cl)cccc4s3)=C(C)C1=O)[C@@H]2COC(N)=O (stereo partly specified) | 25.6 | 64 | 319 | 144 | 0.4 | – | – | – |
| COC12[C@@H]3N[C@@H]3CN1C1=C(C(=O)C(Nc3cccc4nsnc34)=C(C)C1=O)[C@@H]2COC(N)=O (stereo partly specified) | 12.8 | 32 | 250 | 161 | 0.8 | – | – | – |
| COC12[C@@H]3N[C@@H]3CN1C1=C(C(=O)C(Nc3nc4ccccc4s3)=C(C)C1=O)[C@@H]2COC(N)=O (stereo partly specified) | 25.6 | 2 | 325 | 150 | 12.8 | – | – | – |
